Measured values published in PubChem BioAssay (NCI).
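Exposure lasted 48 hours, with cells grown in 96-well plates and compounds tested at five concentrations. The concentration for full growth arrest is given as TGI.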

Key:
Experiment in all cases: growth of human tumour cells (NCI), 48 h
A498 renal = tested on: A498 renal
A549 NSCLC = tested on: A549 NSCLC
ACHN renal = tested on: ACHN renal
BT-549 breast = tested on: BT-549 breast
CAKI-1 renal = tested on: CAKI-1 renal
CCRF-CEM leukemia = tested on: CCRF-CEM leukemia
COLO 205 colon = tested on: COLO 205 colon
DU-145 prostate = tested on: DU-145 prostate
EKVX NSCLC = tested on: EKVX NSCLC
HCC-2998 colon = tested on: HCC-2998 colon
HCT-116 colon = tested on: HCT-116 colon
HCT-15 colon = tested on: HCT-15 colon
HL-60(TB) leukemia = tested on: HL-60(TB) leukemia
HOP-62 NSCLC = tested on: HOP-62 NSCLC
HOP-92 NSCLC = tested on: HOP-92 NSCLC
HS 578T breast = tested on: HS 578T breast
HT29 colon = tested on: HT29 colon
IGROV1 ovarian = tested on: IGROV1 ovarian
K-562 leukemia = tested on: K-562 leukemia
KM12 colon = tested on: KM12 colon
LOX IMVI melanoma = tested on: LOX IMVI melanoma
M14 melanoma = tested on: M14 melanoma
MALME-3M melanoma = tested on: MALME-3M melanoma
MCF7 breast = tested on: MCF7 breast
MDA-MB-231 breast = tested on: MDA-MB-231 breast
MDA-MB-435 = tested on: MDA-MB-435
MDA-N = tested on: MDA-N
MOLT-4 leukemia = tested on: MOLT-4 leukemia
NCI-H23 lung = tested on: NCI-H23 lung
NCI-H460 lung = tested on: NCI-H460 lung
NCI-H522 lung = tested on: NCI-H522 lung
NCI/ADR-RES ovarian = tested on: NCI/ADR-RES ovarian
OVCAR-3 ovarian = tested on: OVCAR-3 ovarian
OVCAR-4 ovarian = tested on: OVCAR-4 ovarian
OVCAR-5 ovarian = tested on: OVCAR-5 ovarian
OVCAR-8 ovarian = tested on: OVCAR-8 ovarian
PC-3 prostate = tested on: PC-3 prostate
RPMI-8226 leukemia = tested on: RPMI-8226 leukemia
RXF 393 renal = tested on: RXF 393 renal
SF-268 CNS = tested on: SF-268 CNS
SF-295 CNS = tested on: SF-295 CNS
SF-539 CNS = tested on: SF-539 CNS
SK-MEL-2 melanoma = tested on: SK-MEL-2 melanoma
SK-MEL-28 melanoma = tested on: SK-MEL-28 melanoma
SK-MEL-5 melanoma = tested on: SK-MEL-5 melanoma
SK-OV-3 ovarian = tested on: SK-OV-3 ovarian
SN12C renal = tested on: SN12C renal
SNB-19 CNS = tested on: SNB-19 CNS
SNB-75 CNS = tested on: SNB-75 CNS
SR leukemia = tested on: SR leukemia
SW-620 colon = tested on: SW-620 colon
T-47D breast = tested on: T-47D breast
TK-10 renal = tested on: TK-10 renal
U251 CNS = tested on: U251 CNS
UACC-257 melanoma = tested on: UACC-257 melanoma
UACC-62 melanoma = tested on: UACC-62 melanoma
UO-31 renal = tested on: UO-31 renal
786-0 renal = tested on: 786-0 renal
NCI-H226 lung = tested on: NCI-H226 lung

C=C1CC(O)C2C(=C)C(=O)OC2C2C(C)C(=O)CC12 (stereo unspecified)
TGI (A498 renal): 63.3 µM
TGI (A549 NSCLC): 41 µM
TGI (ACHN renal): 17.9 µM
TGI (BT-549 breast): 21.5 µM
TGI (CAKI-1 renal): 16.6 µM
TGI (CCRF-CEM leukemia): 41.4 µM
TGI (COLO 205 colon): 43.5 µM
TGI (DU-145 prostate): 46.8 µM
TGI (EKVX NSCLC): 35.6 µM
TGI (HCC-2998 colon): 34.4 µM
TGI (HCT-116 colon): > 100 µM
TGI (HCT-15 colon): 17.1 µM
TGI (HL-60(TB) leukemia): 9.43 µM
TGI (HOP-62 NSCLC): 42.7 µM
TGI (HOP-92 NSCLC): 33.8 µM
TGI (HS 578T breast): 63.2 µM
TGI (HT29 colon): 42.8 µM
TGI (IGROV1 ovarian): 36.2 µM
TGI (K-562 leukemia): 28.7 µM
TGI (KM12 colon): 56.9 µM
TGI (LOX IMVI melanoma): 80.2 µM
TGI (M14 melanoma): 25.6 µM
TGI (MALME-3M melanoma): 31.5 µM
TGI (MCF7 breast): 26.2 µM
TGI (MDA-MB-231 breast): 35.4 µM
TGI (MDA-MB-435): 33.1 µM
TGI (MDA-N): 20.3 µM
TGI (MOLT-4 leukemia): 39.2 µM
TGI (NCI-H23 lung): 31.8 µM
TGI (NCI-H460 lung): 58 µM
TGI (NCI-H522 lung): 19.9 µM
TGI (NCI/ADR-RES ovarian): 49.7 µM
TGI (OVCAR-3 ovarian): 24 µM
TGI (OVCAR-4 ovarian): 37.8 µM
TGI (OVCAR-5 ovarian): 30.1 µM
TGI (OVCAR-8 ovarian): 50.9 µM
TGI (PC-3 prostate): > 100 µM
TGI (RPMI-8226 leukemia): 39.2 µM
TGI (RXF 393 renal): 17.4 µM
TGI (SF-268 CNS): 45.7 µM
TGI (SF-295 CNS): 68.9 µM
TGI (SF-539 CNS): 54.2 µM
TGI (SK-MEL-2 melanoma): 38.2 µM
TGI (SK-MEL-28 melanoma): 46.5 µM
TGI (SK-MEL-5 melanoma): 47 µM
TGI (SK-OV-3 ovarian): > 100 µM
TGI (SN12C renal): 29.9 µM
TGI (SNB-19 CNS): 38.5 µM
TGI (SNB-75 CNS): 30.3 µM
TGI (SR leukemia): 53.2 µM
TGI (SW-620 colon): 30.7 µM
TGI (T-47D breast): 73 µM
TGI (TK-10 renal): 18.7 µM
TGI (U251 CNS): 59.1 µM
TGI (UACC-257 melanoma): 26.5 µM
TGI (UACC-62 melanoma): 29.1 µM
TGI (UO-31 renal): 28 µM

Cc1cc(OCc2nnc3n2N=C(c2cc(F)c(Cl)cc2Cl)/C(=C/c2ccc(-c4ccc(Cl)cc4)o2)S3)ccc1Cl
TGI (786-0 renal): > 50 µM
TGI (A498 renal): > 50 µM
TGI (A549 NSCLC): > 50 µM
TGI (ACHN renal): > 50 µM
TGI (BT-549 breast): > 50 µM
TGI (CAKI-1 renal): > 50 µM
TGI (CCRF-CEM leukemia): > 50 µM
TGI (COLO 205 colon): > 50 µM
TGI (DU-145 prostate): > 50 µM
TGI (EKVX NSCLC): > 50 µM
TGI (HCC-2998 colon): > 50 µM
TGI (HCT-116 colon): > 50 µM
TGI (HCT-15 colon): > 50 µM
TGI (HL-60(TB) leukemia): > 50 µM
TGI (HOP-62 NSCLC): > 50 µM
TGI (HS 578T breast): > 50 µM
TGI (HT29 colon): > 50 µM
TGI (IGROV1 ovarian): > 50 µM
TGI (K-562 leukemia): > 50 µM
TGI (KM12 colon): > 50 µM
TGI (LOX IMVI melanoma): > 50 µM
TGI (M14 melanoma): > 50 µM
TGI (MALME-3M melanoma): > 50 µM
TGI (MCF7 breast): > 50 µM
TGI (MDA-MB-231 breast): > 50 µM
TGI (MDA-MB-435): > 50 µM
TGI (MDA-N): > 50 µM
TGI (MOLT-4 leukemia): > 50 µM
TGI (NCI-H226 lung): > 50 µM
TGI (NCI-H23 lung): > 50 µM
TGI (NCI-H460 lung): > 50 µM
TGI (NCI-H522 lung): > 50 µM
TGI (NCI/ADR-RES ovarian): > 50 µM
TGI (OVCAR-3 ovarian): > 50 µM
TGI (OVCAR-5 ovarian): > 50 µM
TGI (OVCAR-8 ovarian): > 50 µM
TGI (PC-3 prostate): > 50 µM
TGI (RPMI-8226 leukemia): 30.2 µM
TGI (RXF 393 renal): > 50 µM
TGI (SF-268 CNS): > 50 µM
TGI (SF-295 CNS): > 50 µM
TGI (SK-MEL-2 melanoma): > 50 µM
TGI (SK-MEL-28 melanoma): > 50 µM
TGI (SK-MEL-5 melanoma): > 50 µM
TGI (SN12C renal): > 50 µM
TGI (SNB-19 CNS): > 50 µM
TGI (SR leukemia): > 50 µM
TGI (SW-620 colon): > 50 µM
TGI (T-47D breast): > 50 µM
TGI (TK-10 renal): > 50 µM
TGI (U251 CNS): > 50 µM
TGI (UACC-257 melanoma): > 50 µM
TGI (UACC-62 melanoma): > 50 µM
TGI (UO-31 renal): > 50 µM
